Source: the OPERA property sets (Mansouri et al. 2018)
Where a SMILES comes first, the peptide text is derived from it.

Compound: COc1ccc(S(C)(=O)=O)cc1CNC1CCCNC1c1ccccc1 (stereo unspecified)
- logP: 1.9

Compound: Cc1cc2c(ccc3cc(C)c(=O)oc32)o1
- logP: 2.97

Compound: CON(C)C(=O)Nc1cccc(CO)c1
- logP: 0.62

Compound: O=C(NS(=O)(=O)c1cnccc1NC1CCCCCCC1)N1CCCCC1
- logP: 4.55

Compound: COCCOC(=O)C1=C(C)NC(C)=C(C(=O)OCCOC)C1c1cccc2c1OCO2
- logP: 2.93

Compound: CC(=O)NCCCCCN(O)C(=O)CCC(=O)NCCCCCN(O)C(=O)CCC(=O)NCCCCCN(O)C(C)=O
- logP: -0.03

Compound: Cc1cc2ncccc2c2nc(N)n(C)c12
- logP: 1.98

Compound: COc1ccc(C2Cc3c(OC)cccc3N(CCN(C)C)C(=O)C2C)cc1 (stereo unspecified)
- logP: 4.6

Compound: CC(C)C(NC(=O)C(Cc1ccccc1)NC(=O)CNC(=O)CN)C(=O)NC(Cc1ccccc1)C(=O)O (stereo unspecified) (H-GGFVF-OH; configuration not given here)
- logP: -1.4

Compound: COC(=O)C(C)NP(=O)(OCC1C=CC(n2cc(C)c(=O)[nH]c2=O)O1)Oc1ccc(OC(F)(F)F)cc1 (stereo unspecified)
- logP: 1.86

Compound: CNC1CCc2c(OC)cccc2C1C (stereo unspecified)
- logP: 2.42

Compound: Fc1ccc(CNc2[nH]cnc3ncnc2-3)cc1
- logP: 2.34

Compound: Cc1ccc2c(c1)OCN(CCO[N+](=O)[O-])C2=O
- logP: 2.44

Compound: CC(C)NC(=O)Cn1cccc(O)c1=O
- logP: -0.34

Compound: CCCCOc1ccc(NC(=O)OCCN2CCCCC2)cc1
- logP: 4.69

Compound: Cc1ccc(-n2c(Cc3c(C)[nH]c4ccccc34)n[nH]c2=S)cc1
- logP: 3

Compound: NC(Cc1c[nH]c2ccccc12)C(=O)N1CCCC1C(=O)O (stereo unspecified)
- logP: -0.98

Compound: CN1CCN(c2cc3c(cc2F)c(=O)c(C(=O)O)cn3C2CC2)CC1
- logP: 0.15

Compound: Nc1nc(N)c2c(N3CCOCC3)cccc2n1
- logP: 1.11

Compound: Cc1cccc(C)c1CCc1cnc[nH]1
- logP: 2.91

Compound: CO[C@H]1C=CO[C@@]2(C)Oc3c(C)c(O)c4c(c3C2=O)C2=NC3(CCN(CC(C)C)CC3)NC2=C(NC(=O)C(C)=CC=C[C@H](C)[C@H](O)[C@@H](C)[C@@H](O)[C@@H](C)[C@H](OC(C)=O)[C@@H]1C)C4=O
- logP: 4.5

Compound: NC(Cc1ccc(O)cc1)C(=O)NC(Cc1ccc(O)cc1)C(=O)O (stereo not drawn) (H-Tyr-Tyr-OH; configuration not given here)
- logP: -1.87

Compound: Cc1ccc(C)c(-n2nnnc2N)c1
- logP: 1.45

Compound: CC(C)NC(=NC#N)NS(=O)(=O)c1cnccc1NC1CCCCCC1
- logP: 2.07

Compound: Cc1cn(C2C=CC(COP3(=O)OCc4ccccc4O3)O2)c(=O)[nH]c1=O (stereo unspecified)
- logP: 0.28

Compound: CCNC(=S)NN=C(c1cccc([N+](=O)[O-])c1)c1ccccn1
- logP: 2.53

Compound: C=CCC1C(=O)N(CCN(C)C)c2ccccc2CC1c1ccc(OC)cc1 (stereo unspecified)
- logP: 5.3

Compound: COC(=O)c1ccc2ccc3cccc4ccc1c2c34
- logP: 4.73

Compound: CCCOC(=O)c1cnc2n(c1=O)C(C)CCC2 (stereo unspecified)
- logP: 1.14

Compound: CC(=O)c1cc2cccc3ccc4cccc1c4c32
- logP: 4.16

Compound: c1ccc2c(c1)OCC(CCc1ncc[nH]1)O2 (stereo unspecified)
- logP: 1.99

Compound: CCOc1cccc(NC(=O)OCCN2CCCCC2)c1
- logP: 3.77

Compound: CC1=C(C#N)C(C)(C)C(C#N)=C(C)N1
- logP: 2.47

Compound: Clc1cc(Br)cc(Cl)c1N=C1NCCN1
- logP: 2.46

Compound: COC(=O)C=CCn1ccnc1[N+](=O)[O-]
- logP: 0.32

Compound: CC(CO)NC(=O)Cn1ccnc1[N+](=O)[O-] (stereo unspecified)
- logP: -1.02

Compound: CCOC(=O)c1cn2c(C)c(C)nc2c2c1CCC(c1ccccc1)O2 (stereo unspecified)
- logP: 5.5

Compound: CCC(C)c1cnc(CC(C)C)c(=O)n1O (stereo unspecified)
- logP: 1.81

Compound: Nc1ccc(CNC(=O)C2CCCN2C(=O)C(N)C(C2CCCCC2)C2CCCCC2)cn1 (stereo unspecified)
- logP: 4.61

Compound: CC(C)=CCCC(C)=CCCC(=CCCC(C)=CCO)CO
- logP: 4.7

Compound: O=c1c2c(nc3n1CCC3)CCC2
- logP: 0.22

Compound: CC(Cl)C(=O)Nc1ccc(C2=NNC(=O)CC2C)cc1 (stereo unspecified)
- logP: 1.4

Compound: COc1ccc2c(C)cc(=O)oc2c1
- logP: 1.89

Compound: CC(C)CNc1[nH]cnc2ncnc1-2
- logP: 1.92

Compound: OCCCCCCNc1ncnc2c1ncn2C1OC(CO)C(O)C1O (stereo unspecified)
- logP: 0.23

Compound: CC(=O)c1cc(F)c(Cl)cc1Cl
- logP: 3.4

Compound: NC(Cc1ccccc1)C(=O)NCC(=O)NCC(=O)NC(Cc1ccccc1)C(=O)O (stereo unspecified) (H-FGGF-OH; configuration not given here)
- logP: -1.51

Compound: CCOc1cc2ncnc(Nc3cccc(F)c3)c2cc1OCC
- logP: 3.71

Compound: Cc1csc(Cl)c1NC1=NCCN1
- logP: 1.18

Compound: CCCNc1nc(CCC)nc(N2CCOCC2)n1
- logP: 2.7

Compound: CCCCCN(C)CC(=O)Nc1c(C)cccc1C
- logP: 3.2

Compound: O=c1[nH]c(=O)n(Cc2ccc(Cl)cc2Cl)cc1F
- logP: 1.96

Compound: O=[n+]1cnn([O-])c2ccccc21
- logP: -0.8

Compound: NC1=NCC(CN2CCC(Cc3ccccc3)CC2)O1 (stereo unspecified)
- logP: 2.38

Compound: CCCN(CCC)C1CCc2c(OC)cccc2C1C (stereo unspecified)
- logP: 4.76

Compound: CCN(CCO)CCCOc1cc2ncnc(Nc3cc(CC(=O)Nc4cccc(F)c4)[nH]n3)c2cc1OC
- logP: 3.7

Compound: CC(C)NC(=NC#N)NS(=O)(=O)c1cnccc1NC1CCCCCCCCCCC1
- logP: 4.51

Compound: NC(Cc1ccccc1)C(=O)NC(Cc1c[nH]c2ccccc12)C(=O)O (stereo unspecified)
- logP: -0.79

Compound: c1ccc2c(c1)OCC(Cc1nc3ccccc3[nH]1)O2 (stereo unspecified)
- logP: 3.29

Compound: CNc1ncnc2[nH]cnc12
- logP: 0.43

Compound: CCCN(CCC)C1CCc2c(O)cccc2C1C (stereo unspecified)
- logP: 4.06

Compound: CCCCCOC1CCC(NC(=O)NC23CC4CC(CC(C4)C2)C3)CC1 (stereo unspecified)
- logP: 5

Compound: COCCNC(=O)c1c(C)nc2c3c(c(C(=O)N(C)C)cn12)CCC(c1ccccc1)O3 (stereo unspecified)
- logP: 2.15

Compound: Cc1coc2nc3oc(=O)cc(C)c3cc12
- logP: 1.64

Compound: CSCCC(NC(=O)C(N)CC(C)C)C(=O)O (stereo not drawn) (H-Leu-Met-OH; configuration not given here)
- logP: -1.87

Compound: COC(=O)c1c(Oc2nc(OC)cc(OC)n2)cccc1C(C)=NOCCCl
- logP: 3.23

Compound: CC(=O)OC(C)(C)C1CCC2(C)CCCC(C)(O)C2C1 (stereo unspecified)
- logP: 3.8

Compound: OC(CCCN1CCC(C(O)(c2ccccc2)c2ccccc2)CC1)c1ccccc1 (stereo unspecified)
- logP: 3.9

Compound: CCCCC(=O)c1ccncc1
- logP: 2

Compound: COc1ccc(CCNCC(O)COc2ccc(-c3nc(C(C)=O)c[nH]3)cc2)cc1OC (stereo unspecified)
- logP: 2.7

Compound: CN(C)CC(c1ccccc1)c1ccccc1
- logP: 3.58

Compound: NC(Cc1cc(I)c(OCCc2ccc(O)cc2)c(I)c1)C(=O)O (stereo unspecified)
- logP: 2

Compound: CCC(C)C(N)C(=O)NC(CO)C(=O)NC(C(=O)O)C(C)CC (stereo not drawn) (H-Ile-Ser-Ile-OH; configuration not given here)
- logP: -2.64

Compound: Cc1cc2c(nc1N)[nH]c1ccccc12
- logP: 2.9

Compound: O=C(O)CCCCON=C(c1cccc(C(F)(F)F)c1)c1cccnn1
- logP: 2.8

Compound: O=C(NC1CCCCCCC1)NS(=O)(=O)c1cnccc1NC1CCCCCC1
- logP: 5.34

Compound: CC(=O)OCOC(=O)N(C)N=Nc1ccc(Br)cc1
- logP: 3.64

Compound: COC(=O)C(C)=CC1C(C(=O)OCc2cccc(Oc3ccccc3)c2)C1(C)C (stereo unspecified)
- logP: 6.48

Compound: CC(C)CC(NC(=O)C(Cc1c[nH]c2ccccc12)NC(=O)C(N)Cc1c[nH]c2ccccc12)C(=O)O (stereo not drawn) (H-Trp-Trp-Leu-OH; configuration not given here)
- logP: 0.36

Compound: Fc1cncnc1
- logP: -0.03

Compound: NC1=NCC(COc2cccc(Cl)c2)O1 (stereo unspecified)
- logP: 2.09

Compound: CCCCOc1cccc2nc(N)nc(N)c12
- logP: 2.81

Compound: C[N+](C)([O-])CCCCc1ccccc1
- logP: 0.46

Compound: OCC1OC(n2cnc3c(NCc4ccccc4)ncnc32)C(O)C1O (stereo unspecified)
- logP: 1.23

Compound: Clc1ccccc1N1CCN(CCn2nc3ccccc3n2)CC1
- logP: 4

Compound: OC(CNC1CCCCC1)CON=C(C1CC1)C1CC1 (stereo unspecified)
- logP: 2.64
